Experimental data taken from paper PMC11882969 (Nature Communications, 2025).
Where “and” joins values, the source holds several entries; their conditions need not be identical. Identical values can stand only once. Like-named read-outs stand apart in the source and are kept apart here.

Key:
CB1 (rCB1) = CB1 (rCB1) (Rattus norvegicus, UniProt P20272); test: Single-point radioligand displacement screen; type: binding; conditions: for % 1H-CP-55,940 displacement (mean) from single point screen: 10 µM, 1 µM or 300 nM by cell colour (not visible); for rep1_displacement / rep2_displacement / rep3_displacement: Figure 1c source data; for rep1_displacement: replicate 1; for rep2_displacement: replicate 2; for rep3_displacement: replicate 3
Chain of CB1 (rCB1) (P20272 whole entry): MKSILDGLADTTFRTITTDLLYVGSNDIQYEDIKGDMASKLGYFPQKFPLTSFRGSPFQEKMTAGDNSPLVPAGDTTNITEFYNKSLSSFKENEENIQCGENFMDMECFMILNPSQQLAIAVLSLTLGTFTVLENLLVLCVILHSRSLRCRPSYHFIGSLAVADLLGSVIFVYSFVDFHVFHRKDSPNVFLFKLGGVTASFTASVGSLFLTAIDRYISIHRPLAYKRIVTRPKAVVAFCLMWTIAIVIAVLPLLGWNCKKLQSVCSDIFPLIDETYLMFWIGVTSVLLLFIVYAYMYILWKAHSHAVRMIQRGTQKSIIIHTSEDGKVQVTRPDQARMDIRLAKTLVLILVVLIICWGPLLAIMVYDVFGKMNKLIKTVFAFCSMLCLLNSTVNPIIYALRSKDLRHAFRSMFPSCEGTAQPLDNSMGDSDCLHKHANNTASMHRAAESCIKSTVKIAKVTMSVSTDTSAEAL

hCB1 = hCB1 (Homo sapiens, UniProt P21554); test: bioSensAll ebBRET signaling profiling, hCB1; type: cell-based; parameters: host or cells: HEK293SL cells, transient PEI transfection; conditions: for Gi1 hCB1 response: Gi1 biosensor; for Gi1 hCB1 / GoB hCB1: single replicate values, FigS6a; for Emax [95% CI]: normalized to CP-55,940; for EC50: read-out: EC50 [95% CI]
Chain of hCB1 (P21554 whole entry): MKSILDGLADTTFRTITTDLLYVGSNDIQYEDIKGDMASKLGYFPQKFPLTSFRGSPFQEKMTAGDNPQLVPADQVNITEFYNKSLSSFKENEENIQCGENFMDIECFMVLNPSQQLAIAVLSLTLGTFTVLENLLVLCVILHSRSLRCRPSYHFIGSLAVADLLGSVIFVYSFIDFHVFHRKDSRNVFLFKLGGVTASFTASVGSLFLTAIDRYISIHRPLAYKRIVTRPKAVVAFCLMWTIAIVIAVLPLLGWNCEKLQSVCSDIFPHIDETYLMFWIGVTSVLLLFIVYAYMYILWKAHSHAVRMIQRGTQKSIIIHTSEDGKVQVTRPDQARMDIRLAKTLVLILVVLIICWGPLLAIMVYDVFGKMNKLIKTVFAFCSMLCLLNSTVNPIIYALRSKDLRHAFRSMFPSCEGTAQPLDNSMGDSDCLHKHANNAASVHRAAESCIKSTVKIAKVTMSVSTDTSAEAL

[1] = Log [Compound] (M) -13, individual replicate values

## COC(=O)C(NC(=O)c1cc(C)n(-c2cccc(F)c2)n1)c1ccc2c(c1)CCO2 (stereo not shown) [compound 12208]
CB1 (rCB1)
  % 1H-CP-55,940 displacement (mean) from single point screen: -5.83%

## Cn1nc(-c2nnc(CCOc3ccc(Cl)cc3)o2)c2ccccc2c1=O [0450_24]
CB1 (rCB1)
  % 1H-CP-55,940 displacement (mean) from single point screen: 12.07%

## Cc1c(C(=O)OCc2nc3ccccc3o2)cnn1Cc1ccccc1 [compound 8354]
CB1 (rCB1)
  % 1H-CP-55,940 displacement (mean) from single point screen: 59.03%

## O=C(OCc1nc2ccccc2s1)c1c2c(nc3ccccc13)CCC2 [compound 47700]
CB1 (rCB1)
  % 1H-CP-55,940 displacement (mean) from single point screen: 27.24%
  rep1_displacement: 29.5
  rep2_displacement: 33.4
  rep3_displacement: 18.9

## O=C(NCC1CSc2ccccc2O1)c1cn(Cc2ccccc2)nn1 (stereo not shown) [compound 78184]
CB1 (rCB1)
  % 1H-CP-55,940 displacement (mean) from single point screen: 28.43%

## COC(=O)C(NC(=O)c1cn(Cc2ccccc2)nn1)c1cccs1 (stereo not shown) [compound 54064]
CB1 (rCB1)
  % 1H-CP-55,940 displacement (mean) from single point screen: 4.29%

## N#Cc1cccc(OCc2ccoc2C(=O)OCC2CSc3ccccc3O2)c1 (stereo not shown) [compound 35424]
CB1 (rCB1)
  % 1H-CP-55,940 displacement (mean) from single point screen: 60.22%

## COC(=O)C(NC(=O)c1csc(Cc2ccccc2)n1)c1cccs1 (stereo not shown) [compound 61815]
CB1 (rCB1)
  % 1H-CP-55,940 displacement (mean) from single point screen: 32.97%

## CCOc1cncc(NC(=O)c2cc(C)n(-c3cccc(Cl)c3)n2)n1 [compound 88160]
CB1 (rCB1)
  % 1H-CP-55,940 displacement (mean) from single point screen: -5.87%

## Cc1c(C(=O)OCC2CSc3ccccc3O2)nnn1Cc1ccc(F)cc1 (stereo not shown) [compound 61926]
CB1 (rCB1)
  % 1H-CP-55,940 displacement (mean) from single point screen: 64.39%

## Cc1onc(-c2ccccc2)c1C(=O)OCc1cn2cc(Cl)ccc2n1 [compound 74872]
CB1 (rCB1)
  % 1H-CP-55,940 displacement (mean) from single point screen: 49.60%
  rep1_displacement: 51.6
  rep2_displacement: 49.2
  rep3_displacement: 48

## Cc1c(C(=O)N(C)CC2COc3ccccc3O2)cnn1-c1ccccc1 (stereo not shown) [compound 4148]
CB1 (rCB1)
  % 1H-CP-55,940 displacement (mean) from single point screen: 11.41%

## COC(=O)c1nc(N(C)CCOc2ccc(Br)cc2)sc1C [compound 22875]
CB1 (rCB1)
  % 1H-CP-55,940 displacement (mean) from single point screen: 27.03%
  rep1_displacement: 25.7
  rep2_displacement: 29.1
  rep3_displacement: 26.3

## Cc1cc(C(=O)N2CC3(CCC3)[C@H]2[C@H]2CCCO2)nn1-c1cccc(C(F)(F)F)c1 [‘1651]
hCB1; Log [Compound] (M) -4.22186
  Gi1 hCB1 response: 137.59
  Gi1 hCB1: 86.9769
  GoB hCB1: 103.232
hCB1; Log [Compound] (M) -4.63927
  Gi1 hCB1 response: 96.9225
  Gi1 hCB1: 76.9098
  GoB hCB1: 73.1818
hCB1; Log [Compound] (M) -5.47381
  Gi1 hCB1 response: 59.4112
  Gi1 hCB1: 51.5496
  GoB hCB1: 47.4476
hCB1; Log [Compound] (M) -5.89285
  Gi1 hCB1 response: 34.5455
  Gi1 hCB1: 27.4072
  GoB hCB1: 30.9928
hCB1; Log [Compound] (M) -6.31878
  Gi1 hCB1 response: 22.4595
  Gi1 hCB1: 15.521
  GoB hCB1: 20.7963
hCB1; Log [Compound] (M) -6.72585
  Gi1 hCB1 response: 13.9098
  Gi1 hCB1: 7.211
  GoB hCB1: 12.2902
hCB1; Log [Compound] (M) -7.14267
  Gi1 hCB1 response: 3.39
  Gi1 hCB1: 2.849
  GoB hCB1: 6.553
hCB1; Log [Compound] (M) -7.55284
  Gi1 hCB1 response: 4.644
  Gi1 hCB1: 1.862
  GoB hCB1: 3.478
hCB1; Log [Compound] (M) -8
  Gi1 hCB1 response: -4.488
  Gi1 hCB1: 1.7386
  GoB hCB1: 4.539
hCB1; Log [Compound] (M) -8.22186
  Gi1 hCB1 response: -3.346
  Gi1 hCB1: 1.384
  GoB hCB1: -0.5679
hCB1; Log [Compound] (M) -8.39794
  Gi1 hCB1 response: -8.628
  Gi1 hCB1: 3.142
  GoB hCB1: 1.554
hCB1; Log [Compound] (M) -8.68787
  Gi1 hCB1 response: -2.138
  Gi1 hCB1: 2.895
  GoB hCB1: -1.036
hCB1; Log [Compound] (M) -9.15521
  Gi1 hCB1 response: 13.7307
  Gi1 hCB1: 0.4282
  GoB hCB1: -2.079
hCB1; Log [Compound] (M) -9.61989
  Gi1 hCB1 response: 0.5704
  Gi1 hCB1: 2.402
  GoB hCB1: 0.2413
hCB1; Log [Compound] (M) -10.0969
  Gi1 hCB1 response: -10.7993
  Gi1 hCB1: 1.754
  GoB hCB1: 3.298
hCB1; Log [Compound] (M) -10.5529
  Gi1 hCB1 response: 1.622
  Gi1 hCB1: 4.329
  GoB hCB1: 1.32
hCB1; Log [Compound] (M) -11.0177
  Gi1 hCB1 response: 3.525
  Gi1 hCB1: 1.137
  GoB hCB1: 2.867
hCB1; Log [Compound] (M) -11.4949
  Gi1 hCB1 response: -1.466
  Gi1 hCB1: 1.492
  GoB hCB1: 0.4571
hCB1; Log [Compound] (M) -11.9208
  Gi1 hCB1 response: -11.3141
  Gi1 hCB1: 0.7057
  GoB hCB1: 3.784
hCB1; Log [Compound] (M) -12.3979
  Gi1 hCB1 response: -0.1682
  Gi1 hCB1: 3.419
  GoB hCB1: 6.338
hCB1; Log [Compound] (M) -12.8861
  Gi1 hCB1 response: 6.054
  Gi1 hCB1: 4.113
  GoB hCB1: 5.3306
hCB1; [1]
  Gi1 hCB1 response: -5.092 and 7.285
hCB1; Log [Compound] (M) -5.05788
  Gi1 hCB1: 64.2374
  GoB hCB1: 61.4566
hCB1; Log [Compound] (M) -13
  Gi1 hCB1: -0.9593 and 2.509
  GoB hCB1: 4.899 and 2.867
hCB1; hCB1 Gi1
  pEC50 [95% CI]: 5.5 [5.4 – 5.6]
  Emax [95% CI]: 89 [84 – 94]
  EC50: 3.03 µM
hCB1; hCB1 GoB
  pEC50 [95% CI]: 4.7 [4.1 – 5.4]
  Emax [95% CI]: 152 [94 – 208]
  EC50: 19.8 µM

## Cc1cc(C(=O)N2CC3(CCC3)[C@H]2[C@@H]2CCCO2)nn1-c1cccc(C(F)(F)F)c1 [‘5490]
hCB1; Log [Compound] (M) -4.22186
  Gi1 hCB1 response: 126.936
  Gi1 hCB1: 94.6851
  GoB hCB1: 96.1825
hCB1; Log [Compound] (M) -4.63927
  Gi1 hCB1 response: 115.566
  Gi1 hCB1: 84.6644
  GoB hCB1: 79.6378
hCB1; Log [Compound] (M) -5.47381
  Gi1 hCB1 response: 67.3119
  Gi1 hCB1: 56.452
  GoB hCB1: 52.9325
hCB1; Log [Compound] (M) -5.89285
  Gi1 hCB1 response: 63.8428
  Gi1 hCB1: 36.6417
  GoB hCB1: 40.0205
hCB1; Log [Compound] (M) -6.31878
  Gi1 hCB1 response: 33.6054
  Gi1 hCB1: 21.1018
  GoB hCB1: 23.8534
hCB1; Log [Compound] (M) -6.72585
  Gi1 hCB1 response: 15.275
  Gi1 hCB1: 10.5569
  GoB hCB1: 12.0564
hCB1; Log [Compound] (M) -7.14267
  Gi1 hCB1 response: 11.8954
  Gi1 hCB1: 5.469
  GoB hCB1: 9.719
hCB1; Log [Compound] (M) -7.55284
  Gi1 hCB1 response: 0.9509
  Gi1 hCB1: 7.104
  GoB hCB1: 4.971
hCB1; Log [Compound] (M) -8
  Gi1 hCB1 response: 4.733
  Gi1 hCB1: 4.236
  GoB hCB1: 4.953
hCB1; Log [Compound] (M) -8.22186
  Gi1 hCB1 response: -9.009
  Gi1 hCB1: 2.062
  GoB hCB1: 0.1334
hCB1; Log [Compound] (M) -8.39794
  Gi1 hCB1 response: 1.018
  Gi1 hCB1: 3.018
  GoB hCB1: 6.805
hCB1; Log [Compound] (M) -8.68787
  Gi1 hCB1 response: -1.578
  Gi1 hCB1: 2.71
  GoB hCB1: -2.061
hCB1; Log [Compound] (M) -9.15521
  Gi1 hCB1 response: -18.3419
  Gi1 hCB1: 2.078
  GoB hCB1: 0.565
hCB1; Log [Compound] (M) -9.61989
  Gi1 hCB1 response: 1.018
  Gi1 hCB1: 1.014
  GoB hCB1: 0.7988
hCB1; Log [Compound] (M) -10.0969
  Gi1 hCB1 response: 0.1452
  Gi1 hCB1: 3.712
  GoB hCB1: 2.4173
hCB1; Log [Compound] (M) -10.5529
  Gi1 hCB1 response: 4.89
  Gi1 hCB1: 2.602
  GoB hCB1: 1.752
hCB1; Log [Compound] (M) -11.0177
  Gi1 hCB1 response: 13.5964
  Gi1 hCB1: 1.5536
  GoB hCB1: 4.395
hCB1; Log [Compound] (M) -11.4949
  Gi1 hCB1 response: -2.608
  Gi1 hCB1: 3.327
  GoB hCB1: 4.324
hCB1; Log [Compound] (M) -11.9208
  Gi1 hCB1 response: 1.712
  Gi1 hCB1: 2.772
  GoB hCB1: 3.352
hCB1; Log [Compound] (M) -12.3979
  Gi1 hCB1 response: -1.959
  Gi1 hCB1: 2.124
  GoB hCB1: 2.741
hCB1; Log [Compound] (M) -12.8861
  Gi1 hCB1 response: -5.584
  Gi1 hCB1: 2.556
  GoB hCB1: 2.3094
hCB1; [1]
  Gi1 hCB1 response: 3.39 and 3.458
hCB1; Log [Compound] (M) -5.05788
  Gi1 hCB1: 72.2386
  GoB hCB1: 59.1548
hCB1; Log [Compound] (M) -13
  Gi1 hCB1: 3.496 and 2.864
  GoB hCB1: 2.327 and 3.748
hCB1; hCB1 Gi1
  pEC50 [95% CI]: 5.6 [5.5 – 5.6]
  Emax [95% CI]: 98 [94 – 102]
  EC50: 2.8 µM
hCB1; hCB1 GoB
  pEC50 [95% CI]: 5.2 [4.8 – 5.6]
  Emax [95% CI]: 118 [94 – 143]
  EC50: 6.73 µM
hCB1; hCB1 Gz
  pEC50 [95% CI]: 5.6 [5.2 – 6.1]
  EC50: 2.47 µM
